Earlier results as cited in patent publication US20230240985A1, “STABLE PHARMACEUTICAL COMPOSITION OF TOPIRAMATE” (ALKEM LABORATORIES LIMITED, priority 2022, published 2023).

solubility in organic solvents (acetone, chloroform, dimethylsulfoxide, and ethanol): freely soluble | solubility in alkaline solutions (alkaline solutions containing sodium hydroxide or sodium phosphate, pH of 9 to 10): most soluble | stability in aqueous solution (aqueous solution): not stable | pH of saturated solution (saturated solution): 6.3
SMILES: CC1(C)O[C@@H]2[C@@H](CO[C@@]3(COS(N)(=O)=O)OC(C)(C)O[C@@H]23)O1 [Topiramate, 2,3:4,5-Di-O-isopropylidine-β-D-fructopyranose sulfamate]
